Laboratory results taken from ChEMBL document CHEMBL6109156, “Discovery of Dual PD-L1/HDAC3 Inhibitors for Tumor Immunotherapy” (J Med Chem, 2025).
The source made the active and inactive calls. The rule behind the calls is not given here.

Tests used:
[1] = molecular target: T1, Protein deacetylase HDAC6 (Homo sapiens, UniProt Q9UBN7); assay: Inhibition of human recombinant HDAC6 using Ac-Leu-Gly-Lys (Ac)-AMC as substrate preincubated for 10 mins followed by substrate addition and measured after 45 mins by TECAN microtiter plate reader analysis
T1 sequence (Q9UBN7 whole entry): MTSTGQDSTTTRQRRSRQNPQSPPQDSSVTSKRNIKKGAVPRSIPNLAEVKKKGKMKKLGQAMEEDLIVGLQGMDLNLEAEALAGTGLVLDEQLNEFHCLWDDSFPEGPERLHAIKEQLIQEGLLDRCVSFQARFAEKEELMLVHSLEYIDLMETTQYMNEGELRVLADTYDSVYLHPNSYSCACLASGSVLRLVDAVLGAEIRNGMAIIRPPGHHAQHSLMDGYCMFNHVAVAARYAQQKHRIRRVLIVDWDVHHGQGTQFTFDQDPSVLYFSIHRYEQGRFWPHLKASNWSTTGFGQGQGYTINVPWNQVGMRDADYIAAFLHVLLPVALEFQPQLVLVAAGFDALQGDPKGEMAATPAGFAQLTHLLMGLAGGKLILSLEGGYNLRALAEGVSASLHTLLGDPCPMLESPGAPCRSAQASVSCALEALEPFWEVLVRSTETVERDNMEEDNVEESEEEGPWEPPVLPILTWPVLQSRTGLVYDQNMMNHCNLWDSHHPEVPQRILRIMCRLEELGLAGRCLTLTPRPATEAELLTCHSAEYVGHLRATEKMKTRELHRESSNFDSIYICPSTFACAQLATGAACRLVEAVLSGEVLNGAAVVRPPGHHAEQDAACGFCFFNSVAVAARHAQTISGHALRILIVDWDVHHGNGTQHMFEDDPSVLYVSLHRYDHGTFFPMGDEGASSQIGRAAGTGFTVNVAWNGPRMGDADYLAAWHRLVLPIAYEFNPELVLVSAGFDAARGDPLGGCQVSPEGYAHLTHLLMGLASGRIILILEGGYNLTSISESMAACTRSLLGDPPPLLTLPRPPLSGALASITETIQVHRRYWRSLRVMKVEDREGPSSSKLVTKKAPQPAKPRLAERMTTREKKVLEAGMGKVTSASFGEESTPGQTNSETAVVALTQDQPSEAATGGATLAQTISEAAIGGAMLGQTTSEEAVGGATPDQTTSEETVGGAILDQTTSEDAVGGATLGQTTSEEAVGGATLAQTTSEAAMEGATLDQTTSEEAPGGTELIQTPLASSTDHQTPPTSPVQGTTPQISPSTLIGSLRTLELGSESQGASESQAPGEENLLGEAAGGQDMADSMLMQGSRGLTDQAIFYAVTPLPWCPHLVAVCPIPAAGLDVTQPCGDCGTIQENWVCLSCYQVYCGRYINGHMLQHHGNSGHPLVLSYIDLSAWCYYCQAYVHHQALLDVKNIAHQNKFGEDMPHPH

[2] = molecular target: T2, Programmed cell death protein 1/Programmed cell death 1 ligand 1 (Homo sapiens) (UniProt Q15116+Q9NZQ7); assay: (§1) Inhibition of PD-1/PD-L1 (unknown origin) interaction assessed as inhibition rate at 1 uM by HTRF assay relative to control; assay type: protein-complex assay
[3] = molecular target: Programmed cell death protein 1/Programmed cell death 1 ligand 1 (Homo sapiens, UniProt Q9NZQ7); assay: as §1; assay type: protein-complex assay
[4] = tested on: B16-F10; assay: Induction of apoptosis in mouse B16-F10 cells assessed as late apoptotic cells at 1 uM incubated for 48 hrs by Annexin V-FITC/PI staining based flow cytometry analysis (reference value: 5.02 %); assay type: functional
[5] = tested on: B16-F10; assay: Induction of apoptosis in mouse B16-F10 cells assessed as late apoptotic cells at 8 uM incubated for 48 hrs by Annexin V-FITC/PI staining based flow cytometry analysis (reference value: 5.02 %); assay type: functional
[6] = tested on: B16-F10; assay: Antitumor activity against mouse B16-F10 cells implanted in C57BL/6J mouse assessed as tumor growth inhibition at 20 mg/kg, ip administered once daily for 9 days; assay type: functional; conditions: B16-F10, 216 h, time 9 day, read-out: TGI
[7] = tested on: MDA-MB-231; assay: Antiproliferative activity against human MDA-MB-231 cells assessed as cell growth inhibition incubated for 48 hrs by MTT assay; assay type: functional, cell-based; conditions: MDA-MB-231, 48 h
[8] = tested on: B16-F10; assay: Immunomodulatory activity in mouse B16-F10 cells implanted in C57BL/6J mouse assessed as percentage of CD3 positive CD4 positive cells in tumor at 20 mg/kg, ip administered once daily for 9 days by flow cytometric analysis (reference value: 0.20 %); assay type: functional; conditions: time 9 day
[9] = tested on: B16-F10; assay: Immunomodulatory activity in mouse B16-F10 cells implanted in C57BL/6J mouse assessed as percentage of CD3 positive CD4 positive cells in tumor at 40 mg/kg, ip administered once daily for 9 days by flow cytometric analysis (reference value: 0.20 %); assay type: functional; conditions: time 9 day
[10] = tested on: B16-F10; assay: Induction of apoptosis in mouse B16-F10 cells assessed as viable cells at 1 uM incubated for 48 hrs by Annexin V-FITC/PI staining based flow cytometry analysis (reference value: 92.3%); assay type: functional; conditions: read-out: Activity
[11] = tested on: B16-F10; assay: Antiproliferative activity against mouse B16-F10 cells assessed as cell growth inhibition incubated for 48 hrs by MTT assay; assay type: functional, cell-based; conditions: B16-F10, 48 h
[12] = molecular target: Histone deacetylase 1 (Homo sapiens, UniProt Q13547); assay: Inhibition of human recombinant HDAC1 using Ac-Leu-Gly-Lys (Ac)-AMC as substrate preincubated for 10 mins followed by substrate addition and measured after 45 mins by TECAN microtiter plate reader analysis
[13] = tested on: Jurkat; assay: Antiproliferative activity against human Jurkat T cells assessed as cell viability incubated for 48 hrs by MTT assay; assay type: functional, cell-based
[14] = Toxicity in C57BL/6J mouse implanted with mouse B16-F10 cells assessed as heart damage at 20 to 40 mg/kg, ip administered once daily for 9 days by H and E staining based analysis; assay type: organism-based; conditions: in vivo, 216 h, dose 20-40 mg/kg, time 9 day
[15] = molecular target: T2, Programmed cell death protein 1/Programmed cell death 1 ligand 1 (Homo sapiens); assay: Inhibition of PD-1/PD-L1 (unknown origin) interaction assessed as inhibition rate at 0.1 uM by HTRF assay relative to control; assay type: protein-complex assay
[16] = molecular target: Histone deacetylase 3 (Homo sapiens, UniProt O15379); assay: Inhibition of human recombinant HDAC3 using Ac-Leu-Gly-Lys (Ac)-AMC as substrate at 0.1 uM preincubated for 10 mins followed by substrate addition and measured after 45 mins by TECAN microtiter plate reader analysis relative to control; conditions: time 55.0 min
[17] = tested on: B16-F10; assay: Induction of apoptosis in mouse B16-F10 cells assessed as necrotic cells at 10 uM incubated for 48 hrs by Annexin V-FITC/PI staining based flow cytometry analysis (reference value: 2.24%); assay type: functional
[18] = tested on: HCT-116; assay: Antiproliferative activity against human HCT-116 cells assessed as cell growth inhibition incubated for 48 hrs by MTT assay; assay type: functional, cell-based; conditions: HCT-116, 48 h
[19] = tested on: B16-F10; assay: Immunomodulatory activity in mouse B16-F10 cells implanted in C57BL/6J mouse assessed as percentage of CD3 positive CD8 positive cells in tumor at 20 mg/kg, ip administered once daily for 9 days by flow cytometric analysis (reference value: 0.44 %); assay type: functional; conditions: time 9 day

Histone deacetylase 3, sequence (O15379 whole entry): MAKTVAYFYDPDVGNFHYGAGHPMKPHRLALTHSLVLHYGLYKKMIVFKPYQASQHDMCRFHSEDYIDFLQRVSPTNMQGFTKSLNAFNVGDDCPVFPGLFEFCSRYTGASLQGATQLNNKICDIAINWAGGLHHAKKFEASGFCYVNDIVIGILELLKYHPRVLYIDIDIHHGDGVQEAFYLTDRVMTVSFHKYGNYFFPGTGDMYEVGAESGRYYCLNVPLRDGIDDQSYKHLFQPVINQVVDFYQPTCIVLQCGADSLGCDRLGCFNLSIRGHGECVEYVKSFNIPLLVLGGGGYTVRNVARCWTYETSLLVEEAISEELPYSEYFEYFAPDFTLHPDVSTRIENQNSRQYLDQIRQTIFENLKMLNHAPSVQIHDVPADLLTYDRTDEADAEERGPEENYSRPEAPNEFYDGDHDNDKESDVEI
Programmed cell death protein 1/Programmed cell death 1 ligand 1, sequence (Q15116 whole entry): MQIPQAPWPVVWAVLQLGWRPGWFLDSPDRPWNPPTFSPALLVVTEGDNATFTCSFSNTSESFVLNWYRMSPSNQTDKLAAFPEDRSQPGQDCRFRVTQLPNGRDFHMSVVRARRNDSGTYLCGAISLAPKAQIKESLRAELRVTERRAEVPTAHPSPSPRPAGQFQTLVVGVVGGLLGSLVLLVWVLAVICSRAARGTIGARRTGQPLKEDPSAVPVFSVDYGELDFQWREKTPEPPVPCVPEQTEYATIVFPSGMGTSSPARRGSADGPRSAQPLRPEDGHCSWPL
Programmed cell death protein 1/Programmed cell death 1 ligand 1, sequence (Q9NZQ7 whole entry): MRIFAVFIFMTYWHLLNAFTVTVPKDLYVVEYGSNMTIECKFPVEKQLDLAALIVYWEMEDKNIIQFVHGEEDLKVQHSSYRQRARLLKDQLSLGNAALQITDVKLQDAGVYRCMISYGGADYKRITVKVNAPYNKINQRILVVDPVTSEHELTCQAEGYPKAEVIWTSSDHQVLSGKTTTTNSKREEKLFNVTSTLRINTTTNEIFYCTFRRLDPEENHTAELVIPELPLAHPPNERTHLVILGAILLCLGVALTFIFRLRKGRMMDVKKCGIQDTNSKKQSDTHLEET
Histone deacetylase 1, sequence (Q13547 whole entry): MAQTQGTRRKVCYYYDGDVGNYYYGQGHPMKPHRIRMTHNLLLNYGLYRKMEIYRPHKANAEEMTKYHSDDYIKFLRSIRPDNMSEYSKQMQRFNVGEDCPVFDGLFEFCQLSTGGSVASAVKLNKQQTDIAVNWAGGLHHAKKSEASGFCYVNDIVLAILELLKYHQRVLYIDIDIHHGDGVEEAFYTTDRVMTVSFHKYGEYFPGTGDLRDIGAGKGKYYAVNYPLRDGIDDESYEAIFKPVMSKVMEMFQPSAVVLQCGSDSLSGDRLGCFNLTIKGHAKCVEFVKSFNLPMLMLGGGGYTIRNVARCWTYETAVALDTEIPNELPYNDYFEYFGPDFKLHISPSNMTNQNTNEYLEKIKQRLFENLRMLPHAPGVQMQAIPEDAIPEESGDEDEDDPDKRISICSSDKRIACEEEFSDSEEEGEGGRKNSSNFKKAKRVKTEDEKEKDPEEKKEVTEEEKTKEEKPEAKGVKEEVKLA

## CCCNNC(=O)CCCNCc1ccc(-c2cccc(-c3ccccc3)c2C)nc1OC
[1]
  IC50: > 10 µM
[2]
  inhibition: 94.3%
[3]
  IC50: 89.4 nM
[4]
  Activity: 9.24%
[5]
  Activity: 11.4%
[6]
  inhibition in vivo at 20 mg/kg: 48.9%
[7]
  IC50: 3.01 µM
[8]
  Activity: 1.75%
[9]
  Activity: 2.8%
[10]
  viability at 1 µM: 84.8%
[11]
  IC50: 2330 nM
[12]
  IC50: 2230 nM
[13]
  Activity: Active
[14]
  Activity: Non-toxic
[15]
  inhibition: 55.4%
[16]
  inhibition: 42%
[17]
  Activity: 1.04%
[18]
  IC50: 2860 nM
[19]
  Activity: 4.31%
